These results are taken from US8883782B2, “Spiro-tetracyclic ring compounds as beta-secretase modulators and methods of use” (Amgen Inc., priority 2010, dated 2014).

Molecules are shown by their SMILES. Where two headings read alike, the source gives them in different places.

In test [1] the test system is Aβ40 in conditioned medium of cells stably expressing Amyloid Precursor Protein (APP). Description: In vitro BACE cell-based assay (Aβ40 in conditioned medium, sandwich ELISA). As to conditions: read-out: HEK cell assay. An outline of the steps:
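Quantification relied on pAb40/6E10 sandwich ELISA with Europium fluorescence counts, and IC50 was fitted versus concentration.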

Test [2] concerns the target Beta Secretase enzyme (BACE) (Homo sapiens, UniProt P56817). The experiment in a line: In vitro enzymatic BACE FRET (fluorescence resonance energy transfer) assay. In kind it is biochemical. As to conditions: average IC50, enzyme assay; read-out: BACE 1 FRET assay. An outline of the steps:
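Run in 0.05 M acetate pH 4.2 with 10% DMSO final and 100 uM genapol; started by adding 50 nM FRET peptide substrate (fluorophore and quencher flanking the cleavage site), incubated one hour, then stopped with Tris to neutral pH before reading fluorescence.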

The subject of test [3] is Abeta 40 in cerebrospinal fluid (CSF) and brain. Description: In vivo inhibition of beta-secretase (Abeta 40 reduction in CSF and brain). Conditions: rat, after 4 hrs; for inhibition in vivo at 3 mg/kg: Abeta 40, 3 mpk; for inhibition in vivo at 10 mg/kg: Abeta 40, 10 mg/kg (10 mpk). From the text:
In Vivo Inhibition of Beta-Secretase
Several animal models, including mouse, rat, dog, and monkey, may be used to screen for inhibition of beta-secretase activity in vivo following administration of a test compound sample. Animals used in this invention can be wild type, transgenic, or gene knockout animals. […] A separate group of animals receive 2% hydroxypropyl methylcellulose, 1% Tween80 alone, containing no test compound, and serve as a vehicle-control group. At the end of the test period, animals are sacrificed and brain tissues, plasma or cerebrospinal fluid are collected. […] Homogenates are centrifuged at 355,000 g, 4° C. for 30 minutes. CSF or brain supernatants are then analyzed for the presence of A-beta peptide by specific sandwich ELISA assays based on ECL (Electrochemiluminescence) technology. For example, rat Abeta40 is measured using biotinylated-4G8 (Signet) as a capture antibody and Fab40 (an in-house antibody specific to the C-terminal of Abeta40) as a detection antibody.
Actual vehicles used: Oral: 2% HPMC, 1% Tween80, pH 2.2

Where [4] appears, read: Homo sapiens, HEK293, average IC50.
Setting [5] is: CSF, read-out: CSF A-beta reduction % at 3 mpk.
The mark [6] stands for this setting: brain, read-out: Brain A-beta reduction % at 3 mpk.
Where [7] appears, read: CSF, read-out: CSF A-beta reduction % at 10 mg/kg.
Setting [8] is: brain, read-out: Brain A-beta reduction % at 10 mg/kg.
Setting [9] is: Homo sapiens, HEK293, average IC50, HEK cells.

Beta Secretase enzyme (BACE), sequence (P56817 46-501, species assumed): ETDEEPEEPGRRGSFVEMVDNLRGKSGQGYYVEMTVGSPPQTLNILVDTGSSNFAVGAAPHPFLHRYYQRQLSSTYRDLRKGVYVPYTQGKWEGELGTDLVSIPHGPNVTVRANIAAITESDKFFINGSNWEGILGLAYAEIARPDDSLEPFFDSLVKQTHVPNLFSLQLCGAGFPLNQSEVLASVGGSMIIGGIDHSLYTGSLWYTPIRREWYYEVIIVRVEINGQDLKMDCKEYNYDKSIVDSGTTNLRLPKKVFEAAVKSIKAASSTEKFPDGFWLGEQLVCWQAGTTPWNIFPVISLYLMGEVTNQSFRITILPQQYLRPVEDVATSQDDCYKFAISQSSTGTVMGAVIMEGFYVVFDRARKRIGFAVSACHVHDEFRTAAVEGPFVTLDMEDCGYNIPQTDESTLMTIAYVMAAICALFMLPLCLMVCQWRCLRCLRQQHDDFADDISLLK

Regarding `CC#Cc1cncc(-c2ccc3c(c2)[C@@]2(COC(N)=N2)c2cc(-c4cccnc4)nc(F)c2O3)c1` [Example 759, (S)-1-fluoro-7-(5-(prop-1-ynyl)pyridin-3-yl)-3-(pyridin-3-yl)-5′H-spiro[chromeno[2,3-c]pyridine-5,4′-oxazol]-2′-amine], the IC50 in test [1] (setting [4]) turned out to be 3 nM; in test [2], 0.4 nM. Also, the inhibition in vivo at 3 mg/kg in test [3] (setting [5]) and in test [3] (setting [6]) was 43% each time.

For the compound `NC1=N[C@@]2(CS1)c1cc(-c3cccnc3F)ccc1Oc1c(F)cc(C3=CCCOC3)cc12` [Example 802, (S)-2′-(5,6-dihydro-2H-pyran-3-yl)-4′-fluoro-7′-(2-fluoropyridin-3-yl)-5H-spiro[thiazole-4,9′-xanthen]-2-amine], the IC50 in test [1] (setting [4]) amounted to 12 nM; in test [2], 0.2 nM. For the same compound, the inhibition in vivo at 10 mg/kg was 69% in test [3] (setting [7]) and 57% in test [3] (setting [8]).

As to `COc1nc(-c2ccnc(F)c2)cc2c1Oc1ccc(-c3cccnc3)cc1[C@@]21COC(N)=N1` [Example 839, (S)-3-(2-fluoropyridin-4-yl)-1-methoxy-7-(pyridin-3-yl)-5′H-spiro[chromeno[2,3-c]pyridine-5,4′-oxazol]-2′-amine], the IC50 in test [1] (setting [4]) was 11 nM; in test [2], 2.1 nM. Further, the figures for the inhibition in vivo at 10 mg/kg in test [3] (setting [7]) and in test [3] (setting [8]) were 37% and 23%, respectively.

`CC(C)(C#N)COc1cc(F)c2c(c1)[C@]1(COC(N)=N1)c1cc(-c3cccnc3)c(F)cc1O2` [Example 860, (S)-3-(2-amino-3′,5′-difluoro-2′-(pyridin-3-yl)-5H-spiro[oxazole-4,9′-xanthene]-7′-yloxy)-2,2-dimethylpropanenitrile]: the IC50 in test [1] (setting [9]) is 10 nM; in test [2], 0.7 nM. Further, the inhibition in vivo at 10 mg/kg in test [3] (setting [7]) is 0%; in test [3] (setting [8]) it was 2%.

In the case of `NC1=N[C@@]2(CO1)c1cc(-c3cncc(F)c3)ccc1Oc1c2cc(N2CCOCC2)nc1F` [Example 893, (5S)-1-fluoro-7-(5-fluoro-3-pyridinyl)-3-(4-morpholinyl)spiro[chromeno[2,3-c]pyridine-5,4′-[1,3]oxazol]-2′-amine], the IC50 in test [1] (setting [9]) came out at 7 nM; in test [2] it was 0.3 nM. Besides, the inhibition in vivo at 10 mg/kg in test [3] (setting [7]) was 76%; in test [3] (setting [8]), 70%.

In the case of `N#Cc1cccc(-c2ccc3c(c2)[C@@]2(COC(N)=N2)c2cc(N4CCOCC4)nc(F)c2O3)c1` [Example 894, 3-((5S)-2′-amino-1-fluoro-3-(4-morpholinyl)spiro[chromeno[2,3-c]pyridine-5,4′-[1,3]oxazol]-7-yl)benzonitrile], the IC50 turned out to be 10 nM in test [1] (setting [9]) and 0.3 nM in test [2]. The results for the inhibition in vivo at 10 mg/kg in test [3] (setting [7]) and in test [3] (setting [8]) were 75% and 69%, respectively.

For the compound `CC1(C#Cc2cc3c(nc2F)Oc2ccc(-c4cccnc4F)cc2[C@@]32COC(N)=N2)COC1` [Example 901, (5S)-2-fluoro-7-(2-fluoro-3-pyridinyl)-3-((3-methyl-3-oxetanyl)ethynyl)spiro[chromeno[2,3-b]pyridine-5,4′-[1,3]oxazol]-2′-amine], the IC50 is 11 nM in test [1] (average IC50, HEK cells) and 0.5 nM in test [2]. The inhibition in vivo at 10 mg/kg was 56% in test [3] (setting [7]) and 44% in test [3] (setting [8]).

Turning to `NC1=N[C@@]2(CO1)c1cc(-c3cccnc3)ccc1Oc1c2cc(N2CCC(F)(F)C2)nc1F` [Example 916, (S)-3-(3,3-difluoropyrrolidin-1-yl)-1-fluoro-7-(pyridin-3-yl)-5′-H-spiro[chromeno[2,3-c]pyridine-5,4′-oxazol]-2′-amine], the values for the IC50 in test [1] (setting [9]) and in test [2] were 5 nM and 0.4 nM, respectively. Further, the inhibition in vivo at 10 mg/kg in test [3] (setting [7]) was 61%; in test [3] (setting [8]), 44%.

`NC1=N[C@@]2(CO1)c1cc(-c3cncc(F)c3)ccc1Oc1c2cc(N2CCC(F)(F)C2)nc1F` [Example 922, (S)-3-(3,3-difluoropyrrolidin-1-yl)-1-fluoro-7-(5-fluoropyridin-3-yl)-5′-H-spiro[chromeno[2,3-c]pyridine-5,4′-oxazol]-2′-amine]: the values for the IC50 in test [1] (setting [9]) and in test [2] were 9 nM and 0.4 nM, respectively. The results for the inhibition in vivo at 3 mg/kg in test [3] (setting [5]) and in test [3] (setting [6]) were 69% and 57%, respectively.

As to `NC1=N[C@@]2(CO1)c1cc(-c3cncc(F)c3)ccc1Oc1c2cc(N2CCC(F)(F)CC2)nc1F` [Example 927, (S)-3-(4,4-difluoropiperidin-1-yl)-1-fluoro-7-(5-fluoropyridin-3-yl)-5′-H-spiro[chromeno[2,3-c]pyridine-5,4′-oxazol]-2′-amine], the figures for the IC50 in test [1] (setting [9]) and in test [2] were 10 nM and 0.3 nM, respectively. Moreover, the inhibition in vivo at 10 mg/kg was 70% in test [3] (setting [7]) and 65% in test [3] (setting [8]).

In the case of `NC1=N[C@@]2(CS1)c1cc(-c3cccnc3F)ccc1Oc1cnc(C3=CCCOC3)cc12` [Example 928, (S)-3-(5,6-dihydro-2H-pyran-3-yl)-7-(2-fluoropyridin-3-yl)-5′H-spiro[chromeno[2,3-c]pyridine-5,4′-thiazol]-2′-amine], the figures for the IC50 in test [1] (setting [9]) and in test [2] were 8 nM and 0.4 nM, respectively. Besides, the values for the inhibition in vivo at 10 mg/kg in test [3] (setting [7]) and in test [3] (setting [8]) were 82% and 71%, respectively.

With `CC#Cc1cncc(-c2ccc3c(c2)[C@@]2(COC(N)=N2)c2cc(C4=CCOCC4)cnc2O3)c1` [Example 942, (S)-3-(3,6-dihydro-2H-pyran-4-yl)-7-(5-(prop-1-ynyl)pyridin-3-yl)-5′H-spiro[chromeno[2,3-b]pyridine-5,4′-oxazol]-2′-amine], the IC50 is 1 nM in test [1] (setting [9]) and 0.4 nM in test [2]. The inhibition in vivo at 3 mg/kg in test [3] (setting [5]) is 57%; in test [3] (setting [6]), 42%.

On to `CC#Cc1cncc(-c2ccc3c(c2)[C@@]2(COC(N)=N2)c2cc(-c4cnn(C)c4)cc(F)c2O3)c1` [Example 947, (S)-4′-fluoro-2′-(1-methyl-1H-pyrazol-4-yl)-7′-(5-(prop-1-ynyl)pyridin-3-yl)-5H-spiro[oxazole-4,9′-xanthen]-2-amine], for which the IC50 in test [1] (setting [9]) was found to be 4 nM; in test [2], 0.4 nM. Moreover, the inhibition in vivo at 3 mg/kg in test [3] (setting [5]) was 22%; in test [3] (setting [6]), 25%.

In the case of `CC#Cc1cncc(-c2ccc3c(c2)[C@@]2(COC(N)=N2)c2cc(C#CC(C)(C)O)cc(F)c2O3)c1` [Example 951, (S)-4-(2-amino-5′-fluoro-2′-(5-(prop-1-ynyl)pyridin-3-yl)-5H-spiro[oxazole-4,9′-xanthene]-7′-yl)-2-methylbut-3-yn-2-ol], the results for the IC50 in test [1] (setting [9]) and in test [2] were 4 nM and 0.6 nM, respectively. Besides, the figures for the inhibition in vivo at 3 mg/kg in test [3] (setting [5]) and in test [3] (setting [6]) were 17% and 13%, respectively.

With `NC1=N[C@@]2(CS1)c1cc(-c3cccnc3F)ccc1Oc1cnc(N3CCOCC3)cc12` [Example 999, (S)-7-(2-fluoropyridin-3-yl)-3-morpholino-5′H-spiro[chromeno[2,3-c]pyridine-5,4′-thiazol]-2′-amine], the IC50 in test [1] (setting [4]) is 14 nM; in test [2], 0.5 nM. The “CSF A-beta reduction % at 5 mpk” value in test [3] (CSF, Abeta 40, 5 mpk) amounted to 58% at 5 mpk. Besides, in test [3] (brain, Abeta 40, 5 mpk), the “Brain A-beta reduction % at 5 mpk” value was 40% at 5 mpk.
